# Measurements reported in patent publication US10471046B2, “Method for treating, preventing, or reducing the risk of skin infection” (Melinta Subsidiary Corp., priority 2014, dated 2019).
# Where two headings read alike, the source gives them in different places.
# Assays:
# [1] = tested on: P. acnes; test: Agar dilution MIC (CLSI reference method); type: cell-based; details: Cutibacterium acnes
# [2] = tested on: B. fragilis; test: Broth microdilution MIC; type: cell-based; details: Bacteroides fragilis, ATCC25285; B. fragilis ATCC 25285
# [3] = Long-term rat safety study; type: in vivo; details: rat, in vivo, 100 mg/kg/day
# From the text: There was 100% survival in all dose groups.
# [4] = tested on: S. aureus; test: Agar dilution MIC (CLSI reference method); type: cell-based; details: Staphylococcus aureus, ATCC29213; S. aureus ATCC 29213
# Experimental: Susceptibility testing was performed by the agar dilution reference method (radezolid, linezolid, and clindamycin) and broth microdilution method (all agents) as described by the Clinical and Laboratory Standards Institute (CLSI).
# For the agar dilution method, Brucella agar (BBL, 211086) was prepared according to the manufacturer's instructions and cooled to 48-50° C. in a water bath. Once the agar was cooled, it was supplemented with 10 mL of hemin+vitamin K1 Solution (Remel, R450951), 1 mL of 1 mg/mL vitamin K1 working solution (Sigma, V3501), and 50 mL laked sheep blood (Remel, R54004). The media was dispensed into 50 mL centrifuge tubes and held at 48-50° C. […] The diluted antimicrobial agents were added to the dispensed media, gently mixed, and poured into sterile petri dishes. Once hardened, the plates were held in anaerobic jars at room temperature and used the following day. […]
# On the day of testing, a 0.5 McFarland equivalent of each isolate was prepared in Brucella broth with hemin+vitamin K1. […] BRU plates and those containing compound were incubated at 35° C. in an anaerobic environment for 24 hours, read, and re-incubated for an additional 24 hours followed by a final reading. […] Following incubation, MICs were determined as the lowest concentration showing a marked reduction in growth or no growth compared to the growth control plate.
# [5] = tested on: Staphylococcus aureus; test: MIC against ribosome-based resistance phenotypes; type: cell-based; details: read-out: Minimum Inhibitory Concentration (MIC)
# From the text: (§1) Furthermore, the antibiotic compounds can be assayed for anti-proliferative or anti-infective properties on a cellular level. For example, where the target organism is a microorganism, the activity of compounds of interest can be assayed by growing the microorganisms of interest in media either containing or lacking the compound. Growth inhibition can be indicative that the molecule could be acting as a protein synthesis inhibitor. […] For this purpose, a panel of bacterial strains can be assembled to include a variety of target pathogenic species, some containing resistance mechanisms that have been characterized. Use of such a panel of organisms permits the determination of structure-activity relationships not only in regards to potency and spectrum, but also with a view to obviating resistance mechanisms.
# [6] = tested on: Enterococcus faecalis; test: MIC against ribosome-based resistance phenotypes; type: cell-based; details: read-out: Minimum Inhibitory Concentration (MIC)
# From the text: as §1
# [7] = tested on: F. magna; test: Agar dilution MIC (CLSI reference method); type: cell-based; details: Finegoldia magna, ATCC15794; F. magna ATCC 15794
# [8] = tested on: G. vaginalis; test: Agar dilution MIC (CLSI reference method); type: cell-based; details: Gardnerella vaginalis
# [9] = tested on: P. granulosum; test: Agar dilution MIC (CLSI reference method); type: cell-based; details: P. granulosum ATCC 25746
# [10] = tested on: P. granulosum; test: Broth microdilution MIC; type: cell-based; details: P. granulosum ATCC 25746
# [11] = tested on: F. magna; test: Broth microdilution MIC; type: cell-based; details: Finegoldia magna, ATCC15794; F. magna ATCC 15794
# [12] = tested on: G. vaginalis; test: Broth microdilution MIC; type: cell-based; details: Gardnerella vaginalis
# [13] = tested on: Enterococcus faecium; test: MIC against ribosome-based resistance phenotypes; type: cell-based; details: Enterococcus faecium A6349; VanA + Lin-R (G2576U); read-out: Minimum Inhibitory Concentration (MIC)
# From the text: as §1, with “mechanisms. The assays can be performed in microtiter trays according to conventional methodologies as published by The National Committee for Clinical Laboratory Standards (NCCLS) guidelines (NCCLS. M7-A5-Methods for Dilution Antimicrobial Susceptibility Tests for Bacteria That Grow Aerobically; Approved Standard-Fifth Edition. NCCLS Document M100-S12/M7 (ISBN 1-56238-394-9)).” for “mechanisms.”
# [14] = in vivo
# [15] = tested on: caco-2
# [16] = tested on: B. fragilis; test: Agar dilution MIC (CLSI reference method); type: cell-based; details: Bacteroides fragilis, ATCC25285; B. fragilis ATCC 25285
# [17] = tested on: S. aureus; test: Broth microdilution MIC; type: cell-based; details: Staphylococcus aureus, ATCC29213; S. aureus ATCC 29213
# [18] = tested on: B. thetaiotaomicron; test: microbe, parasite or virus in culture; type: cell-based; details: Bacteroides thetaiotaomicron, ATCC29741, read-out: MIC, broth microdilution
# [19] = ATCC29212, Enterococcus faecalis ATCC29212-P5, Lin-R (G2576U)
# [20] = ATCC14018, G. vaginalis ATCC 14018
# [21] = ATCC49145, G. vaginalis ATCC 49145
compound,measurement,setting,value
"CC(=O)NC[C@H]1CN(c2ccc(N3CCOCC3)c(F)c2)C(=O)O1 [Linezolid, linezolid]",MIC,"[1]; ATCC11827, P. acnes ATCC 11827",0.5 µg/mL
same,MIC,"[1]; ATCC11828, P. acnes ATCC 11828",0.5 µg/mL
same,MIC,"[1]; ATCC29399, P. acnes ATCC 29399",0.5 µg/mL
same,MIC,[2],2 µg/mL
same,cellularity of sternal and femoral bone marrow,[3],decreased cellularity of sternal and femoral bone marrow
same,"red cell mass, absolute reticulocyte and neutrophil counts",[3],"decreased red cell mass, absolute reticulocyte and neutrophil counts"
same,MIC,[4],2 µg/mL
same,MIC,"[5]; Staphylococcus aureus A7820, Lin-R (G2576U) + Mac-R (ErmC)",64 µg/mL
same,MIC,[6]; [19],32 µg/mL
same,MIC,[7],2 µg/mL
same,MIC,[8]; [20],0.5 µg/mL
same,MIC,[8]; [21],0.5 µg/mL
same,MIC,[9],2 µg/mL
same,MIC,[10],1 µg/mL
same,MIC,[11],1 µg/mL
same,MIC,[12]; [20],0.5 µg/mL
same,MIC,[12]; [21],0.5 µg/mL
same,MIC,[13],16 µg/mL
CC(=O)NC[C@H]1CN(c2ccc(-c3ccc(CNCc4cnn[nH]4)cc3)c(F)c2)C(=O)O1.Cl [model compound],solubility of salt in water,pH 4,2.6 mg/mL
same,solubility of salt in water,pH 5.4,0.2 mg/mL
same,solubility of salt in water,pH 6.5,0.06 mg/mL
same,intrinsic solubility,pH 6.8,0.01 mg/mL
same,positive food effect,[14],4 ×
same,caco-2 permeability,[15],5e-07 cm/s
"CCC[C@@H]1C[C@@H](C(=O)N[C@@H]([C@H]2O[C@H](SC)[C@H](O)[C@@H](O)[C@H]2O)[C@H](C)Cl)N(C)C1 [Clindamycin, clindamycin]",MIC,"[1]; ATCC11827, P. acnes ATCC 11827",≤ 0.06 µg/mL
same,MIC,"[1]; ATCC11828, P. acnes ATCC 11828",0.125 µg/mL
same,MIC,"[1]; ATCC29399, P. acnes ATCC 29399",≤ 0.06 µg/mL
same,MIC,[2],1 µg/mL
same,MIC,[16],2 µg/mL
same,MIC,[7],1 µg/mL
same,MIC,[8]; [20],0.25 µg/mL
same,MIC,[8]; [21],0.125 µg/mL
same,MIC,[9],1 µg/mL
same,MIC,[10],1 µg/mL
same,MIC,[17],0.25 µg/mL
same,MIC,[11],0.5 µg/mL
same,MIC,[12]; [20],0.125 µg/mL
same,MIC,[12]; [21],≤ 0.06 µg/mL
"CN(C)[C@@H]1C(O)=C(C(N)=O)C(=O)[C@@]2(O)C(O)=C3C(=O)c4c(O)cccc4[C@@](C)(O)[C@H]3C[C@@H]12 [TET, tetracycline]",MIC,[2],0.25 µg/mL
same,MIC,[18],8 µg/mL
same,MIC,[10],0.25 µg/mL
same,MIC,[17],1 µg/mL
same,MIC,[11],0.25 µg/mL
same,MIC,[12]; [20],0.5 µg/mL
same,MIC,[12]; [21],> 32 µg/mL
"CC[C@H]1OC(=O)[C@H](C)[C@@H](O[C@H]2C[C@@](C)(OC)[C@@H](O)[C@H](C)O2)[C@H](C)[C@@H](O[C@@H]2O[C@H](C)C[C@H](N(C)C)[C@H]2O)[C@](C)(O)C[C@@H](C)CN(C)[C@H](C)[C@@H](O)[C@]1(C)O [Azithromycin, azithromycin]",MIC,"[5]; ATCC29213, Staphylococcus aureus ATCC29213, phenotype QC",1 µg/mL
same,MIC,"[6]; ATCC29212, Enterococcus faecalis ATCC29212, phenotype QC",8 µg/mL
same,MIC,[6]; [19],8 µg/mL
same,MIC,[6],128 µg/mL
